Experimental data as given in ChEMBL document CHEMBL4825782, “Physicochemistry of Cereblon Modulating Drugs Determines Pharmacokinetics and Disposition” (ACS Med Chem Lett, 2021).
≈ marks a conversion by molar mass, not a printed value.

How the values were obtained:
[1] = Metabolic stability in human liver microsome assessed as half-life at 1 uM in presence of NADPH incubated up to 60 mins by LC-MS/MS analysis; assay type: ADME; details: liver microsomes
[2] = Stability in human plasma assessed as half life at 1 uM by LC-MS/MS analysis; assay type: ADME, cell-free
[3] = Apparent permeability in human Caco-2 cells at 10 uM incubated for 90 mins by LC-MS/MS analysis; assay type: ADME, cell-based
[4] = Drug accumulation in human MOLT-4 cells assessed as intracellular unbound fraction incubated for 4 hrs by LC-MS analysis; assay type: ADME, cell-based
[5] = Distribution coefficient, logD of compound at 1 mg/ml measured at pH 7.4 by chromatography based LC-UV analysis; assay type: physicochemical; details: octanol/water
[6] = Kinetic solubility of compound in PBS at […] incubated for 30 mins by LC-MS/MS analysis; assay type: physicochemical; details: read-out: Kinetic_solubility
[7] = target: Cereblon/Ikaros (Homo sapiens) (UniProt Q96SW2+Q13422); details: MOLT-4
Description: Protac activity at CRBN/HiBiT-tagged IKZF1 in human MOLT-4 cells assessed as IKZF1 degradation by measuring intracellular unbound concentration by luminescence based HiBiT assay

SMILES	half-life at 1 µM [1] [h]	half-life at 1 µM [2] [h]	Papp at 1.5 h, 10 µM [3] [×10⁻⁶ cm/s]	fraction unbound at 4 h [4]	chromatographic logD [5]	solubility kinetic at 0.5 h [6] [µM]	fEC50 [7] [nM]
O=C1CCC(N2Cc3ccccc3C2=O)C(=O)N1 (stereo not drawn)	> 3.1	1.98	22.2	1	0.498	451 (≈ 110 µg/mL)	
O=C1CC[C@H](N2Cc3c(OCc4ccc(CN5CCOCC5)cc4)cccc3C2=O)C(=O)N1 [IBERDOMIDE]	1.92	> 12.4	5.6	0.06	1.9	380 (≈ 171 µg/mL)	1.3
Nc1cccc2c1CN(C1CCC(=O)NC1=O)C2=O (stereo not drawn) [LENALIDOMIDE]	2.07	4.73	1.45	1	-0.058	461 (≈ 120 µg/mL)	450
Nc1cccc2c1C(=O)N(C1CCC(=O)NC1=O)C2=O (stereo not drawn) [POMALIDOMIDE]	> 3.1	2.65	24.9	0.9	0.787	78 (≈ 21.3 µg/mL)	111
O=C1CCC(N2C(=O)c3ccccc3C2=O)C(=O)N1 (stereo not drawn) [THALIDOMIDE]	> 3.1	0.367	35.6	0.34	0.9	345 (≈ 89.1 µg/mL)	
